Experimental data as given in patent publication US9113629B2, “4-amino-6-(4-substituted-phenyl)-picolinates and 6-amino-2-(4-substituted-phenyl)-pyrimidine-4-carboxylates and their use as herbicides” (DOW AGROSCIENCES LLC, priority 2013, dated 2015).
Like-named read-outs stand apart in the source and are kept apart here. One block for each compound: values may come before it.

Assays:
[1] = system: Key Broadleaf Weed and Crop Species; test: Post-emergent Test II herbicidal activity (Table 5); assay type: in vivo; conditions: post-emergence, 336 h, 14 days after application
Method in brief: (§1)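 Greenhouse post-emergent assay: seedlings (first/second true leaf) in Metro-Mix 360 were sprayed at 187 L/ha at a top rate plus twofold dilutions down to 1/16×; solvent-blank controls were included. Percent visual injury was read at 14 d.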

[2] = system: Key Grass and Sedge Weeds as well as Grass Crops; test: Post-emergent Test II herbicidal activity (Table 6); assay type: in vivo; conditions: post-emergence, 336 h; for pest or weed control at 70 g/ha: application rate 70 g ai/ha; for pest or weed control at 140 g/ha: application rate 140 g ai/ha
Method in brief: as §1

[3] = CYPES: yellow nutsedge (Cyperus esculentus), read-out: Visual Growth Reduction (%) 14 Days After Application, CYPES
[4] = DIGSA: crabgrass (Digitaria sanguinalis), read-out: Visual Growth Reduction (%) 14 Days After Application, DIGSA
[5] = ECHCG: barnyardgrass (Echinochloa crus-galli), read-out: Visual Growth Reduction (%) 14 Days After Application, ECHCG
[6] = ORYSA: rice (Oryza sativa), read-out: Visual Growth Reduction (%) 14 Days After Application, ORYSA
[7] = SETFA: giant foxtail (Setaria faberi), read-out: Visual Growth Reduction (%) 14 Days After Application, SETFA
[8] = SORVU: grain sorghum (Sorghum vulgare), read-out: Visual Growth Reduction (%) 14 Days After Application, SORVU
[9] = TRZSS (wheat, Triticum aestivum), read-out: Visual Growth Reduction (%) 14 Days After Application, TRZSS
[10] = ZEAMX: maize, corn (Zea mays), read-out: Visual Growth Reduction (%) 14 Days After Application, ZEAMX
[11] = Triticum aestivum, TRZSS (wheat), read-out: Visual Growth Reduction (%) 14 Days After Application, TRZSS

- melting point: 124 to 126 °C
Structure (SMILES): COC(=O)c1nc(-c2cc(F)c(C(F)(F)F)cc2F)c(F)c(N)c1Cl [Compound 144]
- pest or weed control at 70 g/ha ([1]; ABUTH: velvetleaf (Abutilon theophrasti), 70 g ai/ha, post-emergent, read-out: Visual Growth Reduction (%) 14 Days After Application ABUTH): 85 to 94%
- pest or weed control at 140 g/ha ([1]; ABUTH: velvetleaf (Abutilon theophrasti), 140 g ai/ha, post-emergent, read-out: Visual Growth Reduction (%) 14 Days After Application ABUTH): 95 to 100%
- pest or weed control at 70 g/ha ([1]; AMARE: redroot pigweed (Amaranthus retroflexus), 70 g ai/ha, post-emergent, read-out: Visual Growth Reduction (%) 14 Days After Application AMARE): 95 to 100%
- pest or weed control at 140 g/ha ([1]; AMARE: redroot pigweed (Amaranthus retroflexus), 140 g ai/ha, post-emergent, read-out: Visual Growth Reduction (%) 14 Days After Application AMARE): 95 to 100%
- pest or weed control at 70 g/ha ([1]; BRSNN: oilseed-rape, canola (Brassica napus), 70 g ai/ha, post-emergent, read-out: Visual Growth Reduction (%) 14 Days After Application BRSNN): 85 to 94%
- pest or weed control at 140 g/ha ([1]; BRSNN: oilseed-rape, canola (Brassica napus), 140 g ai/ha, post-emergent, read-out: Visual Growth Reduction (%) 14 Days After Application BRSNN): 95 to 100%
- pest or weed control at 70 g/ha ([1]; CHEAL: lambsquarters (Chenopodium album), 70 g ai/ha, post-emergent, read-out: Visual Growth Reduction (%) 14 Days After Application CHEAL): 85 to 94%
- pest or weed control at 140 g/ha ([1]; CHEAL: lambsquarters (Chenopodium album), 140 g ai/ha, post-emergent, read-out: Visual Growth Reduction (%) 14 Days After Application CHEAL): 95 to 100%
- pest or weed control at 70 g/ha ([1]; EPHHL: wild poinsettia (Euphorbia heterophylla), 70 g ai/ha, post-emergent, read-out: Visual Growth Reduction (%) 14 Days After Application EPHHL): 75 to 84%
- pest or weed control at 140 g/ha ([1]; EPHHL: wild poinsettia (Euphorbia heterophylla), 140 g ai/ha, post-emergent, read-out: Visual Growth Reduction (%) 14 Days After Application EPHHL): 85 to 94%
- pest or weed control at 70 g/ha ([1]; HELAN: sunflower (Helianthus annuus), 70 g ai/ha, post-emergent, read-out: Visual Growth Reduction (%) 14 Days After Application HELAN): 85 to 94%
- pest or weed control at 140 g/ha ([1]; HELAN: sunflower (Helianthus annuus), 140 g ai/ha, post-emergent, read-out: Visual Growth Reduction (%) 14 Days After Application HELAN): 95 to 100%
- pest or weed control at 70 g/ha ([1]; VIOTR: wild pansy (Viola tricolor), 70 g ai/ha, post-emergent, read-out: Visual Growth Reduction (%) 14 Days After Application VIOTR): 75 to 84%
- pest or weed control at 140 g/ha ([1]; VIOTR: wild pansy (Viola tricolor), 140 g ai/ha, post-emergent, read-out: Visual Growth Reduction (%) 14 Days After Application VIOTR): 85 to 94%
- pest or weed control at 70 g/ha [2, 3]: 85 to 94%
- pest or weed control at 140 g/ha [2, 3]: 95 to 100%
- pest or weed control at 70 g/ha [2, 4]: 60 to 74%
- pest or weed control at 140 g/ha [2, 4]: 75 to 84%
- pest or weed control at 70 g/ha [2, 5]: 45 to 59%
- pest or weed control at 140 g/ha [2, 5]: 75 to 84%
- pest or weed control at 70 g/ha [2, 6]: 0 to 29%
- pest or weed control at 140 g/ha [2, 6]: 0 to 29%
- pest or weed control at 70 g/ha [2, 7]: 60 to 74%
- pest or weed control at 140 g/ha [2, 7]: 75 to 84%
- pest or weed control at 70 g/ha [2, 8]: 75 to 84%
- pest or weed control at 140 g/ha [2, 8]: 85 to 94%
- pest or weed control at 70 g/ha [2, 9]: 60 to 74%
- pest or weed control at 140 g/ha [2, 9]: 75 to 84%
- pest or weed control at 70 g/ha [2, 10]: 60 to 74%
- pest or weed control at 140 g/ha [2, 10]: 75 to 84%

- melting point: 288 to 293 °C (dec.)
Structure (SMILES): Nc1cc(-c2ccc(I)c(F)c2F)nc(C(=O)O)c1Cl [Compound 38]
- pest or weed control at 70 g/ha ([1]; ABUTH: velvetleaf (Abutilon theophrasti), application rate 70 g ai/ha, read-out: Visual Growth Reduction (%) 14 Days After Application, ABUTH): 95 to 100%
- pest or weed control at 140 g/ha ([1]; ABUTH: velvetleaf (Abutilon theophrasti), application rate 140 g ai/ha, read-out: Visual Growth Reduction (%) 14 Days After Application, ABUTH): 95 to 100%
- pest or weed control at 70 g/ha ([1]; AMARE: redroot pigweed (Amaranthus retroflexus), application rate 70 g ai/ha, read-out: Visual Growth Reduction (%) 14 Days After Application, AMARE): 85 to 94%
- pest or weed control at 140 g/ha ([1]; AMARE: redroot pigweed (Amaranthus retroflexus), application rate 140 g ai/ha, read-out: Visual Growth Reduction (%) 14 Days After Application, AMARE): 95 to 100%
- pest or weed control at 70 g/ha ([1]; BRSNN: oilseed-rape, canola (Brassica napus), application rate 70 g ai/ha, read-out: Visual Growth Reduction (%) 14 Days After Application, BRSNN): 95 to 100%
- pest or weed control at 140 g/ha ([1]; BRSNN: oilseed-rape, canola (Brassica napus), application rate 140 g ai/ha, read-out: Visual Growth Reduction (%) 14 Days After Application, BRSNN): 95 to 100%
- pest or weed control at 70 g/ha ([1]; CHEAL: lambsquarters (Chenopodium album), application rate 70 g ai/ha, read-out: Visual Growth Reduction (%) 14 Days After Application, CHEAL): 85 to 94%
- pest or weed control at 140 g/ha ([1]; CHEAL: lambsquarters (Chenopodium album), application rate 140 g ai/ha, read-out: Visual Growth Reduction (%) 14 Days After Application, CHEAL): 95 to 100%
- pest or weed control at 70 g/ha ([1]; EPHHL: wild poinsettia (Euphorbia heterophylla), application rate 70 g ai/ha, read-out: Visual Growth Reduction (%) 14 Days After Application, EPHHL): 95 to 100%
- pest or weed control at 140 g/ha ([1]; EPHHL: wild poinsettia (Euphorbia heterophylla), application rate 140 g ai/ha, read-out: Visual Growth Reduction (%) 14 Days After Application, EPHHL): 95 to 100%
- pest or weed control at 70 g/ha ([1]; HELAN: sunflower (Helianthus annuus), application rate 70 g ai/ha, read-out: Visual Growth Reduction (%) 14 Days After Application, HELAN): 75 to 84%
- pest or weed control at 140 g/ha ([1]; HELAN: sunflower (Helianthus annuus), application rate 140 g ai/ha, read-out: Visual Growth Reduction (%) 14 Days After Application, HELAN): 85 to 94%
- pest or weed control at 70 g/ha ([1]; VIOTR: wild pansy (Viola tricolor), application rate 70 g ai/ha, read-out: Visual Growth Reduction (%) 14 Days After Application, VIOTR): 95 to 100%
- pest or weed control at 140 g/ha ([1]; VIOTR: wild pansy (Viola tricolor), application rate 140 g ai/ha, read-out: Visual Growth Reduction (%) 14 Days After Application, VIOTR): 95 to 100%
- pest or weed control at 70 g/ha [2, 11]: 60 to 74%
- pest or weed control at 140 g/ha [2, 11]: 60 to 74%
- pest or weed control at 70 g/ha [2, 3]: 95 to 100%
- pest or weed control at 140 g/ha [2, 3]: 95 to 100%
- pest or weed control at 70 g/ha [2, 4]: 75 to 84%
- pest or weed control at 140 g/ha [2, 4]: 75 to 84%
- pest or weed control at 70 g/ha [2, 5]: 95 to 100%
- pest or weed control at 140 g/ha [2, 5]: 95 to 100%
- pest or weed control at 70 g/ha [2, 6]: 0 to 29%
- pest or weed control at 140 g/ha [2, 6]: 0 to 29%
- pest or weed control at 70 g/ha [2, 7]: 95 to 100%
- pest or weed control at 140 g/ha [2, 7]: 95 to 100%
- pest or weed control at 70 g/ha [2, 8]: 85 to 94%
- pest or weed control at 140 g/ha [2, 8]: 85 to 94%
- pest or weed control at 70 g/ha [2, 10]: 85 to 94%
- pest or weed control at 140 g/ha [2, 10]: 95 to 100%
